Data taken from patent US6489537B1 (priority 1998, dated 2002).
Where “and” joins values, the source holds several entries; their conditions need not be identical. Equal values may be shown once. Read-outs that look alike come from different tables or passages of the source.

Assays:
[1] = tested on: S. cerevisiae ycf1Δ mutant strain DTY167; assay type: cell-based; settings: for IC50: read-out: concentration required for 50% attenuation of cell density
[2] = tested on: S. cerevisiae INVSc1 cells; experiment: Cd2+ dose-response growth of TaPCS1-expressing and control yeast cells; assay type: cell-based; settings: YNB 1% sucrose/1% galactose, OD600 after 24 hours, read-out: K0.5 for growth
TaPCS1 message = experiment: Competitive PCR of TaPCS1 expression in wheat roots; assay type: in vivo; settings: wheat roots treated with 100 μM Cd2+ for 6 hours versus untreated
[3] = tested on: S. cerevisiae cells expressing an Arabidopsis metallothionein; experiment: Growth in presence of Cd2+ after BSO preincubation, metallothionein cells; assay type: cell-based; settings: 6 hour preincubation, 60 μM Cd2+, OD 18 hours after Cd2+
Method: FIG. 13A is a graph depicting phytochelatin synthesis in cells expressing PCS. The growth of S. cerevisiae cells expressing either TaPCS1 (circles) or an Arabidopsis metallothionein (squares) in the presence of Cd^2+ (200 μM for TAPCS1 and 60 μM for metallothionein) following a 6 hour preincubation using different concentrations of BSO (L-Buthionine-sulfoxime), a glutathione synthesis inhibitor. The OD was measured 18 hours after the addition of Cd^2+.

[4] = tested on: S. cerevisiae cells expressing TaPCS1; settings: 6 hour preincubation, 200 μM Cd2+, OD 18 hours after Cd2+
S. cerevisiae cells = experiment: Cd2+ accumulation using 109Cd2+; assay type: cell-based; settings: versus empty pYES2 cells; 24 hour culture, non-inhibitory Cd2+ concentrations, n=3
Method: FIG. 10 is a graph depicting the greater accumulation of Cd^2+ by cells expressing TaPCS1 compared to the Cd^2+ accumulation by control cells. Yeast cells carrying the empty pYES2 plasmid (white bars) and TaPCS1-expressing cells (black bars) were grown in arginine-phosphate medium containing different non-inhibitory Cd^2+ concentrations. After 24 hours, the cells were harvested and washed and the amount of Cd^2+ accumulated inside the cells was determined using ^109 Cd^2+ (Error bars=S.E., n=3).
S. cerevisiae cells were grown in arginine-phosphate medium for 24 hours in the presence of various amounts of CdCl2 containing 0.5 μCi ^109Cd^2+. The cells were harvested and washed. The radioactivity was determined as described previously (Clemens et al., 1998, Proc. Natl. Acad. Sci. U.S.A. 95:12043-12048).

[5] = Equilibrium dialysis of purified AtPCS1-FLAG against 109CdCl2; assay type: binding; settings: immunoaffinity-purified protein
Method: The binding of Cd^2+ was determined by equilibrium dialysis of a 400-800 μl (160 μg) sample of purified AtPCS1-FLAG against 80 ml volumes of 10 mM Tris-HCl buffer, pH 7.8, containing 0.05 to 20 μM ^109CdCl2 (specific activity 22 Ci/mol, Amersham Pharmacia Biotech, Piscataway, N.J.) for 12 hours at 4° C. in 2 ml mini-collodion membrane tubes (molecular weight cut-off of 25,000; Schleicher and Schuell, Inc., Keene, N.H.). Protein-bound ^109Cd was estimated by measuring the radioactivity of the bulk medium outside the dialysis tube and that of the solution within the dialysis tube and determining the increase in ^109Cd radioactivity consequent on AtPCS1-FLAG. Binding constants and stoichiometries of binding were estimated by nonlinear least squares analysis (Marquardt, 1963, J. Soc. Ind. Appl. Math. 11:431-441) using the Ultrafit nonlinear curve fitting package from BioSoft (Ferguson, Mo.).

[6] = PC synthase activity assay (incorporation of GSH into PC2 and PC3); assay type: biochemical; settings: for aggregate rate of incorporation of GSH into PC2 and PC3: purified protein
Method: PC synthase activity was assayed according to Grill et al. (1989, Proc. Natl. Acad. Sci. U.S.A. 86:6838-6842) in reaction media containing crude soluble fraction (50 μg protein), purified AtPCS1-FLAG (0.5 μg) or no protein, 3.3 mM GSH, 10 mM 2-mercaptoethanol and 200 mM Tris-HCl buffer (pH 8.0) plus or minus 200 μM CdCl2 at 37° C. for 40 minutes. After terminating the reactions with 5% (w/v) 5-sulfosalicylic acid, PCs were estimated in the supernatant by reverse-phase FPLC and reaction with DTNB.

S. cerevisiae = experiment: Growth of PCS-expressing yeast on YNB medium with 100 μM Cd2+; assay type: cell-based

For `O=[As]O` [AsO2^−], the “fold increase in concentration exerting 50% inhibition of growth in liquid culture” value [1] was 1.6 fold and the IC50 [1] was 200 µM and 325 µM.

With `[Cu+2]` [Cu^2+] the “fold increase in concentration exerting 50% inhibition of growth in liquid culture” value [1] was 2.4 fold.

With `[Hg+2]` [Hg^2+] the “fold increase in concentration exerting 50% inhibition of growth in liquid culture” value [1] was 1.6 fold and the IC50 [1] was 4 µM and 6.3 µM.

For `[Cl][Cd][Cl]` [Cd^2+, CdCl2], the “fold increase in concentration exerting 50% inhibition of growth in liquid culture” value [1] was 24 fold, the IC50 ([2]; TaPCS1-expressing cells) was 90 µM and the IC50 ([2]; control cells with empty pYES2) was 6 µM. For the same molecule, the “fold higher concentration of TaPCS1 message” value (TaPCS1 message) was 5-10 fold.

For `CCCCS(=N)(=O)CCC(N)C(=O)O` [BSO, L-Buthionine-sulfoxime], the “effect on metallothionein-dependent Cd2+ tolerance” value [3] was “no effect” and the “effect on TaPCS1-mediated Cd2+ tolerance” value [4] was “reduced the TaPCS1-mediated Cd^2+ tolerance in a dose-dependent manner”.

B1: TaPCS1: wheat (Triticum aestivum) phytochelatin synthase, SEQ ID NO: 6 (protein, UniProt Q9SWW5 1-500, looked up)
Glutathione …: MEVASLYRRVLPSPPAVEFASAEGKRLFAEALQGGTMEGFFNLISYFQTQSEPAFCGLASLSVVLNALAIDPGRPWKGPWRWFDESMLDCCEPLHKVKAEGITFGKVVCLAHCAGARVQSFRADQTTIHDFRAHLTRCASSQDCHLISSYHRSPFKQTGTGHFSPIGGYHAEKDMALILDVARFKYPPHWVPLTLLWDAMNTTDEATGLLRGFMLVSRRSSAPSLLYTVSCGHGSWKSMAKYCVEDVPNLLKDESLDNVTTLLSRLVESLPANAGDLIKCVIEVRRKEEGESSLSKEEKERLFLKEKVLQQIRDTDLFRVVHELQYPKGLCGSCSSSSDEDSLAEIAATVCCQGAAFLSGNLVSRDGFCCRETCIKCIEANGDGLKTVISGTVVSKGNEQAVDLLLPTSSSKTSLCNSNLKSKIVKYPSSTDVLTVLLLVLQPNTWLGIKDENVKAEFQSLVSTDNLPDLLKQEILHLRRQLHYLAGCKGQEACQEPPSP
For B1, the “increase in Cd2+ accumulation” value (S. cerevisiae cells) was 30-50%.

B2: AtPCS1-FLAG (protein, UniProt Q9S7Z3 1-485, looked up)
Glutathione …: MAMASLYRRSLPSPPAIDFSSAEGKLIFNEALQKGTMEGFFRLISYFQTQSEPAYCGLASLSVVLNALSIDPGRKWKGPWRWFDESMLDCCEPLEVVKEKGISFGKVVCLAHCSGAKVEAFRTSQSTIDDFRKFVVKCTSSENCHMISTYHRGVFKQTGTGHFSPIGGYNAERDMALILDVARFKYPPHWVPLKLLWEAMDSIDQSTGKRRGFMLISRPHREPGLLYTLSCKDESWIEIAKYLKEDVPRLVSSQHVDSVEKIISVVFKSLPSNFNQFIRWVAEIRITEDSNQNLSAEEKSRLKLKQLVLKEVHETELFKHINKFLSTVGYEDSLTYAAAKACCQGAEILSGSPSKEFCCRETCVKCIKGPDDSEGTVVTGVVVRDGNEQKVDLLVPSTQTECECGPEATYPAGNDVFTALLLALPPQTWSGIKDQALMHEMKQLISMASLPTLLQEEVLHLRRQLQLLKRCQENKEEDDLAAPAY
modifications: FLAG tag
For B2, the “stoichiometric ratio of Cd2+ binding (cadmium per AtPCS1)” value [5] was 7.09±0.94, the “aggregate rate of incorporation of GSH into PC2 and PC3” value ([6]; absence of Cd2+) was under 0.01 nmol/mg/min and the “aggregate rate of incorporation of GSH into PC2 and PC3” value ([6]; presence of Cd2+ (200 μM CdCl2), 3.3 mM GSH, 37° C.) was 30000 to 35000 nmol/mg/min. The “catalytic activity exceeding that of previous preparations from plants” value ([6]; versus Grill et al., 1989) was “more than 10^3 fold”.

B3: AtPCS1: Arabidopsis thaliana phytochelatin synthase, 55 kDa, SEQ ID NO: 2 (protein, UniProt Q9S7Z3 1-485, looked up)
Glutathione …: MAMASLYRRSLPSPPAIDFSSAEGKLIFNEALQKGTMEGFFRLISYFQTQSEPAYCGLASLSVVLNALSIDPGRKWKGPWRWFDESMLDCCEPLEVVKEKGISFGKVVCLAHCSGAKVEAFRTSQSTIDDFRKFVVKCTSSENCHMISTYHRGVFKQTGTGHFSPIGGYNAERDMALILDVARFKYPPHWVPLKLLWEAMDSIDQSTGKRRGFMLISRPHREPGLLYTLSCKDESWIEIAKYLKEDVPRLVSSQHVDSVEKIISVVFKSLPSNFNQFIRWVAEIRITEDSNQNLSAEEKSRLKLKQLVLKEVHETELFKHINKFLSTVGYEDSLTYAAAKACCQGAEILSGSPSKEFCCRETCVKCIKGPDDSEGTVVTGVVVRDGNEQKVDLLVPSTQTECECGPEATYPAGNDVFTALLLALPPQTWSGIKDQALMHEMKQLISMASLPTLLQEEVLHLRRQLQLLKRCQENKEEDDLAAPAY
For B3, the “stoichiometric ratio of Cd2+ binding (cadmium per AtPCS1)” value [5] was “approximately 6” and the “Cd2+ tolerance conferred when expressed in S. cerevisiae” value (S. cerevisiae) was “strong Cd^2+ tolerance”.
